From US20260174739A1 (priority 2022, published 2026)
Where a name gives a salt, the structure may show the parent alone.

Molecular target: human SERT (Homo sapiens, UniProt P31645)
Experiment: Inhibitory activity assay against 5-HT transporter (neurotransmitter transporter uptake assay kit)
Format: cell-based
Settings: HEK-293 cells overexpressing human SERT; read-out: 5-HTT (IC50)
Experimental: In HEK-293 cells overexpressing human SERT, the transporter inhibitory effect of the test compound on human SERT was assayed using a Neurotransmitter transporter uptake assay kit (Molecular devices).

Chain of human SERT (P31645 whole entry): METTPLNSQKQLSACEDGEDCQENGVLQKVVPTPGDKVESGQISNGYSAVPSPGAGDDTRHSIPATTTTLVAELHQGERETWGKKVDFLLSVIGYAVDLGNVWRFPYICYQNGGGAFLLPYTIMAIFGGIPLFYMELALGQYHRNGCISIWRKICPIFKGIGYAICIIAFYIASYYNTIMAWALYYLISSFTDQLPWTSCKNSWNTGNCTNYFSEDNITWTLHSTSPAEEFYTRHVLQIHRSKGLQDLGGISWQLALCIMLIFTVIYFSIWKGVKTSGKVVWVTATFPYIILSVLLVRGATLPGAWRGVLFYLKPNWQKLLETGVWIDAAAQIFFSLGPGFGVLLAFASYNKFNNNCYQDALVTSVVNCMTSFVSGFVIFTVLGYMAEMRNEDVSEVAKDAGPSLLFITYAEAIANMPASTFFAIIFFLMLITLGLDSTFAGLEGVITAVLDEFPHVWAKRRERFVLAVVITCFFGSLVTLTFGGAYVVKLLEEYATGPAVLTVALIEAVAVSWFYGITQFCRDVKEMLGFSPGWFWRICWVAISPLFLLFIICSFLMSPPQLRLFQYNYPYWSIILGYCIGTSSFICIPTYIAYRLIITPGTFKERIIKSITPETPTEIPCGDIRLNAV

Compound | IC50 [µM]
N#Cc1cccc(C2(N)CCc3nc(N)sc3C2)c1 (racemic) | 8.9
NC1(c2ccccc2)CCc2nc(O)sc2C1 (racemic) [rac-A8, 6-amino-6-phenyl-4,5,6,7-tetrahydrobenzothiazol-2-ol] | 0.007
CN(Cc1ccccc1)C1(c2ccccc2)CCc2[nH]ncc2C1 (racemic) [rac-A68, N-benzyl-N-methyl-5-phenyl-4,5,6,7-tetrahydro-1H-indazol-5-amine] | 0.7
CNC1(c2ccccc2F)CCc2nc(N)sc2C1 (racemic) [rac-A81, 6-(2-fluorophenyl)-N^6-methyl-4,5,6,7-tetrahydrobenzothiazole-2,6-diamine] | 0.094
CNC1(c2cccc(OC)c2)CCc2nc(N)sc2C1 (racemic) [rac-A88, 6-(3-methoxyphenyl)-N^6-methyl-4,5,6,7-tetrahydrobenzothiazole-2,6-diamine] | 0.9
COc1ccc(C2(N)CCc3nc(N)sc3C2)cc1 (racemic) [rac-A89, 6-(4-methoxyphenyl)-4,5,6,7-tetrahydrobenzothiazole-2,6-diamine] | 7.6
CNC1(c2cccc(C(F)(F)F)c2)CCc2nc(N)sc2C1 (racemic) [rac-A94, 6-(3-trifluoromethylphenyl)-N^6-methyl-4,5,6,7-tetrahydrobenzothiazole-2,6-diamine hydrobromide] | 4.3
Nc1nc2c(s1)CC(N)(c1cccnc1)CC2 (racemic) [rac-A98, 6-(pyridin-3-yl)-4,5,6,7-tetrahydrobenzothiazole-2,6-diamine] | 16
Cc1ccccc1C1(N)CCc2nc(N)sc2C1 (racemic) [rac-A100, 6-(2-methylphenyl)-4,5,6,7-tetrahydrobenzothiazole-2,6-diamine] | 17
Nc1nc2c(s1)CC(N)(c1ccc3ccccc3c1)CC2 (racemic) [rac-A118, 6-(naphthalen-2-yl)-4,5,6,7-tetrahydrobenzothiazole-2,6-diamine] | 2
NC1(c2ccccc2)CCc2nc(C(F)(F)F)sc2C1 (racemic) [rac-A131, 6-phenyl-2-(trifluoromethyl)-4,5,6,7-tetrahydrobenzo[d]thiazol-6-amine hydrochloride] | 3.6
NC1(c2ccccc2)CCc2scnc2C1 (racemic) [rac-A134, 5-phenyl-4,5,6,7-tetrahydrobenzo[d]thiazol-5-amine] | 17
NC1(c2ccccc2)CCc2oncc2C1 (racemic) [rac-A145, phenyl-4,5,6,7-tetrahydrobenzo[d]isoxazol-5-amine] | 0.6
NC1(c2ccc(F)cc2)CCCc2cn[nH]c21 (racemic) [rac-A222, 7-(4-fluorophenyl)-4,5,6,7-tetrahydro-1H-indazol-7-amine] | 10
COc1nc2c(s1)CC(N)(c1ccccc1)CC2 (racemic) [rac-A225, 2-methoxy-6-phenyl-4,5,6,7-tetrahydrobenzo[d]thiazol-6-amine] | 1
CN(C)C1(c2ccccc2)CCc2ncsc2C1 (racemic) [rac-A233, N,N-dimethyl-6-phenyl-4,5,6,7-tetrahydrobenzo[d]thiazol-6-amine] | 0.3
Nc1nc2c(s1)CC(N)(c1ccc(F)cc1F)CC2 (racemic) [rac-A235, 6-(2,4-difluorophenyl)-4,5,6,7-tetrahydrobenzo[d]thiazole-2,6-diamine] | 5.9
CNC1(c2ccc(F)cc2F)CCc2nc(N)sc2C1 (racemic) [rac-A236, 6-(2,4-difluorophenyl)-N^6-methyl-4,5,6,7-tetrahydrobenzo[d]thiazole-2,6-diamine] | 2.8
NC1(c2ccccc2)CCc2nnsc2C1 (racemic) [rac-A244, 6-phenyl-4,5,6,7-tetrahydrobenzo[d][1,2,3]thiadiazol-6-amine hydrochloride] | 1.5
CN(C)C1(c2ccccc2)CCc2sc(N)nc2C1 (racemic) [rac-A249, N^5, N^5-dimethyl-5-phenyl-4,5,6,7-tetrahydrobenzo[d]thiazole-2,5-diamine] | 1
CNC1(c2ccc(OC)c(OC)c2)CCc2nc(N)sc2C1 (racemic) [rac-A254, 6-(3,4-dimethoxyphenyl)-N^6-methyl-4,5,6,7-tetrahydrobenzo[d]thiazole-2,6-diamine] | 2

Compound | IC50 [µM]
CCOc1nc2c(s1)CC(N)(c1ccccc1)CC2 (racemic) [rac-A257, 2-ethoxy-6-phenyl-4,5,6,7-tetrahydrobenzo[d]thiazol-6-amine] | 0.3
COc1cccc(C2(N)CCc3nc(O)sc3C2)c1 (racemic) [rac-A262, 6-amino-6-(3-methoxyphenyl)-4,5,6,7-tetrahydrobenzo[d]thiazol-2-ol] | 0.14
CNC1(c2cccc(OC)c2)CCc2ncsc2C1 (racemic) [rac-A273, 6-(3-methoxyphenyl)-N-methyl-4,5,6,7-tetrahydrobenzo[d]thiazol-6-amine hydrochloride] | 1
CNC1(c2ccccc2)CCc2nc(O)sc2C1 (racemic) [rac-A279, 6-(methylamino)-6-phenyl-4,5,6,7-tetrahydrobenzo[d]thiazol-2-ol] | 0.028
CNC1(c2ccc(F)cc2)CCc2ncsc2C1 (racemic) [rac-A294, 6-(4-fluorophenyl)-N-methyl-4,5,6,7-tetrahydrobenzo[d]thiazol-6-amine] | 1.1
CCOc1cccc(C2(N)CCc3nc(O)sc3C2)c1 (racemic) [rac-A295, 6-amino-6-(3-ethoxyphenyl)-4,5,6,7-tetrahydrobenzo[d]thiazol-2-ol hydrochloride] | 0.11
COc1cccc(C2(N)CCc3c(sc(=O)n3C)C2)c1 (racemic) [rac-A299, 6-amino-6-(3-methoxyphenyl)-3-methyl-4,5,6,7-tetrahydrobenzo[d]thiazol-2-one hydrochloride] | 0.52
COc1cccc(C2(N)CCc3nc(NC(C)=O)sc3C2)c1 (racemic) [rac-A300, N-(6-amino-6-(3-methoxyphenyl)-4,5,6,7-tetrahydrobenzo[d]thiazol-2-yl)acetamide] | 2.1
CCNc1nc2c(s1)CC(N)(c1cccc(OC)c1)CC2 (racemic) [rac-A301, N^2-ethyl-6-(3-methoxyphenyl)-4,5,6,7-tetrahydrobenzo[d]thiazole-2,6-diamine hydrochloride] | 4
CSc1cccc(C2(N)CCc3nc(N)sc3C2)c1 (racemic) [rac-A304, 6-(3-methylthio)phenyl-4,5,6,7-tetrahydrobenzo[d]thiazole-2,6-diamine] | 3.7
NC1(c2cccc(O)c2)CCc2nc(O)sc2C1 (racemic) [rac-A306, 6-amino-6-(3-hydroxyphenyl)-4,5,6,7-tetrahydrobenzo[d]thiazol-2-ol] | 0.2
COc1cccc(C2(N)CCc3nc(N)sc3C2)n1 (racemic) [rac-A310, 6-(6-methoxypyridin-2-yl)-4,5,6,7-tetrahydrobenzo[d]thiazole-2,6-diamine] | 16
COc1cccc(C2(N)CCc3nc(C(C)=O)sc3C2)c1 (racemic) [rac-A314, 1-(6-amino-6-(3-methoxyphenyl)-4,5,6,7-tetrahydrobenzo[d]thiazol-2-yl)ethan-1-one hydrochloride] | 5.6
COc1cccc(C2(N)CCc3nc(C(N)=O)sc3C2)c1 (racemic) [rac-A315, 6-amino-6-(3-methoxyphenyl)-4,5,6,7-tetrahydrobenzo[d]thiazole-2-formamide] | 6.8
COc1cccc(C2(N)CCc3nc(C4CC4)sc3C2)c1 (racemic) [rac-A316, 2-cyclopropyl-6-(3-methoxyphenyl)-4,5,6,7-tetrahydrobenzo[d]thiazol-6-amine hydrochloride] | 4
COc1cccc(C2(N)CCc3nc(OC)sc3C2)c1 (racemic) [rac-A317, 2-methoxy-6-(3-methoxyphenyl)-4,5,6,7-tetrahydrobenzo[d]thiazol-6-amine] | 5.1
COc1cccc(C2(N)CCc3nc(Br)sc3C2)c1 (racemic) [rac-A318, 2-bromo-6-(3-methoxyphenyl)-4,5,6,7-tetrahydrobenzo[d]thiazol-6-amine hydrochloride] | 4.6
COc1cccc(C2(N)CCc3nc(-c4ccccc4)sc3C2)c1 (racemic) [rac-A319, 6-(3-methoxyphenyl)-2-phenyl-4,5,6,7-tetrahydrobenzo[d]thiazol-6-amine hydrochloride] | 0.98
Nc1nc2c(s1)C[C@@](N)(c1ccccc1)CC2 [R-A1] | 1
N[C@]1(c2ccccc2)CCc2ncsc2C1 [R-A14] | 0.067
CCOc1cccc([C@@]2(N)CCc3nc(N)sc3C2)c1 [R-A228, (R)-6-(3-ethoxyphenyl)-4,5,6,7-tetrahydrobenzo[d]thiazole-2,6-diamine] | 2.9
